Laboratory results as given in ChEMBL document CHEMBL1697781, “Assessment of the health effects of chemicals in humans: II. Construction of an adverse effects database for QSAR modeling” (Curr Drug Discov Technol, 2004).

How the values were obtained:
Details in all cases: human; call rule not given here
Hepatotoxicity [1] = test: FDA HLAED, alkaline phosphatase increase
Hepatotoxicity [2] = test: FDA HLAED, serum glutamic pyruvic transaminase (SGPT) increase
Hepatotoxicity [3] = test: FDA HLAED, serum glutamic oxaloacetic transaminase (SGOT) increase
Hepatotoxicity [4] = test: FDA HLAED, liver enzyme composite activity
Hepatotoxicity [5] = test: FDA HLAED, lactate dehydrogenase (LDH) increase
Hepatotoxicity [6] = test: FDA HLAED, gamma-glutamyl transferase (GGT) increase
For GGT Increase - Index Value in this document: reference of the scale not given here.
For LDH Increase - Index Value in this document: reference of the scale not given here.

Row | SMILES | Alkaline Phosphatase Increase - Activity Score (Hepatotoxicity [1]) | Alkaline Phosphatase Increase - Index Value (Hepatotoxicity [1]) | Alkaline Phosphatase Increase - Number of Reports (Hepatotoxicity [1]) | SGPT Increase - Activity Score (Hepatotoxicity [2]) | SGPT Increase - Index Value (Hepatotoxicity [2]) | SGPT Increase - Number of Reports (Hepatotoxicity [2]) | SGOT Increase - Activity Score (Hepatotoxicity [3]) | SGOT Increase - Index Value (Hepatotoxicity [3]) | SGOT Increase - Number of Reports (Hepatotoxicity [3]) | Composite Activity - Active (Hepatotoxicity [4]) | Composite Activity - Marginal (Hepatotoxicity [4]) | Composite Activity - Score (Hepatotoxicity [4]) | LDH Increase - Activity Score (Hepatotoxicity [5]) | LDH Increase - Index Value (Hepatotoxicity [5]) | LDH Increase - Number of Reports (Hepatotoxicity [5]) | GGT Increase - Activity Score (Hepatotoxicity [6]) | GGT Increase - Index Value (Hepatotoxicity [6]) | GGT Increase - Number of Reports (Hepatotoxicity [6])
1 | CC(=O)N(CC(O)CN(C(C)=O)c1c(I)c(C(=O)NCC(O)CO)c(I)c(C(=O)NCC(O)CO)c1I)c1c(I)c(C(=O)NCC(O)CO)c(I)c(C(=O)NCC(O)CO)c1I (configuration not stated) [IODIXANOL] | Inactive | 0 | < 4 | Inactive | 0 | < 4 | Inactive | 0 | < 4 | 0 | 0 | Inactive | Inactive | 0 | < 4 | Inactive | 0 | < 4
2 | CC(=O)N(CC(O)CO)c1c(I)c(C(=O)NCC(O)CO)c(I)c(C(=O)NCC(O)CO)c1I (configuration not stated) [IOHEXOL] | Inactive | 144.9 | < 4 | Inactive | 0 | < 4 | Inactive | 144.9 | < 4 | 0 | 0 | Inactive | Inactive | 144.9 | < 4 | Inactive | 0 | < 4
3 | C[C@H](O)C(=O)Nc1c(I)c(C(=O)NC(CO)CO)c(I)c(C(=O)NC(CO)CO)c1I [IOPAMIDOL] | Inactive | 0 | < 4 | Inactive | 0 | < 4 | Inactive | 526.3 | < 4 | 1 | 0 | Inactive | Active | 1579 | < 4 | Inactive | 0 | < 4
4 | COCC(=O)Nc1c(I)c(C(=O)NCC(O)CO)c(I)c(C(=O)N(C)CC(O)CO)c1I (configuration not stated) [IOPROMIDE] | Inactive | 0 | < 4 | Inactive | 0 | < 4 | Inactive | 0 | < 4 | 0 | 0 | Inactive | Inactive | 0 | < 4 | Inactive | 0 | < 4
5 | O=C(NCC(O)CO)c1c(I)c(C(=O)NCC(O)CO)c(I)c(N(CCO)C(=O)CO)c1I (configuration not stated) [IOVERSOL] | Inactive | 0 | < 4 | Inactive | 0 | < 4 | Inactive | 0 | < 4 | 0 | 0 | Inactive | Inactive | 400 | < 4 | Inactive | 0 | < 4
6 | CCc1c2c(nc3ccc(OC(=O)N4CCC(N5CCCCC5)CC4)cc13)-c1cc3c(c(=O)n1C2)COC(=O)[C@]3(O)CC [IRINOTECAN] | Inactive | 4.1 | < 4 | Inactive | 6.1 | < 4 | Inactive | 6.1 | < 4 | 0 | 0 | Inactive | Inactive | 4.1 | < 4 | Inactive | 2 | < 4
7 | FC(F)OC(Cl)C(F)(F)F (configuration not stated) [ISOFLURANE] | Inactive | 0.6 | < 4 | Inactive | 0.4 | < 4 | Inactive | 1 | >= 4 | 0 | 0 | Inactive | Inactive | 0 | < 4 | Inactive | 0 | < 4
8 | NNC(=O)c1ccncc1 [ISONIAZID] | Active | 12.7 | >= 4 | Active | 34.7 | >= 4 | Active | 38.7 | >= 4 | 5 | 0 | Active | Active | 10 | >= 4 | Active | 8 | >= 4
9 | O=[N+]([O-])O[C@@H]1CO[C@H]2[C@@H]1OC[C@@H]2O [ISOSORBIDE MONONITRATE] | Inactive | 0 | < 4 | Inactive | 0.5 | < 4 | Inactive | 0.2 | < 4 | 0 | 0 | Inactive | Inactive | 0.2 | < 4 | Inactive | 0 | < 4
